Key:
Assay in all cases: relative viability (nuclei count vs DMSO), 5 days (fraction); higher = more cells survive
PAC-1 + Alpelisib = compound: C=CCc1cccc(/C=N/NC(=O)CN2CCN(Cc3ccccc3)CC2)c1O [PAC-1] + Cc1nc(NC(=O)N2CCC[C@H]2C(N)=O)sc1-c1ccnc(C(C)(C)C(F)(F)F)c1 [Alpelisib] (partner 2 µM)
In short: (§1)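 Each reported value is a median over duplicate plates. It expresses relative viability: treated-well nuclei count divided by vehicle-well nuclei count. Lung cancer cell lines in 1536-well plates were dosed by pin tool a day after seeding, alone with one drug or with a fixed anchor-drug dose plus five library-drug doses (not always all listed) in √10 steps, and nuclei were counted after 5 days.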

BMX-IN-1 + Navitoclax = compound: C=CC(=O)Nc1cc(-n2c(=O)ccc3cnc4ccc(-c5ccc(NS(C)(=O)=O)cc5)cc4c32)ccc1C [BMX-IN-1] + CC1(C)CCC(c2ccc(Cl)cc2)=C(CN2CCN(c3ccc(C(=O)NS(=O)(=O)c4ccc(N[C@H](CCN5CCOCC5)CSc5ccccc5)c(S(=O)(=O)C(F)(F)F)c4)cc3)CC2)C1 [Navitoclax] (partner 0.5 µM)
In short: as §1

PAC-1 + Decitabine = compound: C=CCc1cccc(/C=N/NC(=O)CN2CCN(Cc3ccccc3)CC2)c1O [PAC-1] + Nc1ncn([C@H]2C[C@H](O)[C@@H](CO)O2)c(=O)n1 [Decitabine] (partner 2 µM)
In short: as §1

BMX-IN-1 + Tozasertib = compound: C=CC(=O)Nc1cc(-n2c(=O)ccc3cnc4ccc(-c5ccc(NS(C)(=O)=O)cc5)cc4c32)ccc1C [BMX-IN-1] + Cc1cc(Nc2cc(N3CCN(C)CC3)nc(Sc3ccc(NC(=O)C4CC4)cc3)n2)n[nH]1 [Tozasertib] (partner 0.1 µM)
In short: as §1

PAC-1 + Palbociclib = compound: C=CCc1cccc(/C=N/NC(=O)CN2CCN(Cc3ccccc3)CC2)c1O [PAC-1] + CC(=O)c1c(C)c2cnc(Nc3ccc(N4CCNCC4)cn3)nc2n(C2CCCC2)c1=O [Palbociclib] (partner 0.5 µM)
In short: as §1

Cell Line	relative viability (PAC-1 + Alpelisib; first compound 0.02 µM)	relative viability (PAC-1 + Alpelisib; first compound 0.06325 µM)	relative viability (PAC-1 + Alpelisib; first compound 0.2 µM)	relative viability (PAC-1 + Alpelisib; first compound 2 µM)	relative viability (BMX-IN-1 + Navitoclax; first compound 0.02 µM)	relative viability (BMX-IN-1 + Navitoclax; first compound 0.2 µM)	relative viability (BMX-IN-1 + Navitoclax; first compound 0.6325 µM)	relative viability (BMX-IN-1 + Navitoclax; first compound 2 µM)	relative viability (PAC-1 + Decitabine; first compound 0.02 µM)	relative viability (PAC-1 + Decitabine; first compound 0.06325 µM)	relative viability (PAC-1 + Decitabine; first compound 0.2 µM)	relative viability (PAC-1 + Decitabine; first compound 2 µM)	relative viability (BMX-IN-1 + Tozasertib; first compound 0.02 µM)	relative viability (BMX-IN-1 + Tozasertib; first compound 0.2 µM)	relative viability (BMX-IN-1 + Tozasertib; first compound 0.6325 µM)	relative viability (BMX-IN-1 + Tozasertib; first compound 2 µM)	relative viability (PAC-1 + Palbociclib; first compound 0.02 µM)	relative viability (PAC-1 + Palbociclib; first compound 0.06325 µM)	relative viability (PAC-1 + Palbociclib; first compound 0.2 µM)	relative viability (PAC-1 + Palbociclib; first compound 2 µM)
NCI-H596	0.428	0.561	0.472	0.446	0.906	1.08	1.07	0.816	0.915	1	0.93	0.942	1.07	0.932	0.819	0.959				
NCI-H650	1.09	1.23	1.23	1.17					0.307	0.331	0.298	0.45	0.753	0.838	0.739	0.764	0.317	0.296	0.39	0.342
NCI-H661	0.581	0.56	0.671	0.687					0.526	0.53	0.439	0.506	0.378	0.358	0.352	0.348	0.439	0.445	0.399	0.392
NCI-H1299	1.06	1	1.02	1.01	1.08	1.05	1.05	1.06												
NCI-H1563	0.98	0.935	0.922	1.02																
NCI-H1623													0.494	0.465	0.447	0.394				
NCI-H1648									0.415	0.577	0.452	0.551	0.447	0.47	0.426	0.459	0.299	0.243	0.26	0.228
NCI-H1650					1.16	1.25	1.36	1.25	0.447	0.441	0.344	0.371	0.374	0.503	0.364	0.41	0.334	0.375	0.333	0.274
NCI-H1703	0.364	0.414	0.356	0.344	1.25	1.3	1.29	0.942												
NCI-H1792	0.717	0.77	0.722	0.677	0.559	0.632	0.49	0.724	0.539	0.521	0.482	0.483					0.692	0.627	0.64	0.627
NCI-H2228	0.611	0.672	0.593	0.753	0.954	0.853	1.44	0.969					0.243	0.245	0.243	0.224	1.03	0.921	0.804	0.797
NCI-H2342									0.791	0.705	0.704	0.733	0.454	0.526	0.494	0.422	0.531	0.561	0.54	0.564
SW 900										0.393	0.478	0.378	0.425	0.682	0.606	0.679		0.599	0.554	0.474

Source: the supplement of paper PMC10307832
